In assay [1] the target is T1, BIK1 (MBP-BIK1) (Arabidopsis thaliana, UniProt O48814).
T1 construct: coding region of BIK1, HisMBP-tagged (pDEST-HisMBP; a 6xHis version from pDEST17 was also made), tag kept, E. coli BL21(DE3)
T1 sequence (O48814 1-395): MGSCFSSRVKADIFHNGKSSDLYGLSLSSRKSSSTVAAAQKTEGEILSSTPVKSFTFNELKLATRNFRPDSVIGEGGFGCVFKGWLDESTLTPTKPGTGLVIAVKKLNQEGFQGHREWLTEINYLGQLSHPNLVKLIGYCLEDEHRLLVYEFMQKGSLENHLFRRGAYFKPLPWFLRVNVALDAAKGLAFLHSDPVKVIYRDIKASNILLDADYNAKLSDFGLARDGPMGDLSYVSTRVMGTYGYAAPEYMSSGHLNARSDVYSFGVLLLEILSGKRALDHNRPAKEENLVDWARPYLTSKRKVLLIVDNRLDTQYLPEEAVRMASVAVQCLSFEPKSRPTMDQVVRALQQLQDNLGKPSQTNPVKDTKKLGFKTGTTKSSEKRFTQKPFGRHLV
Kind of assay: biotin switch. It counts as binding. As to conditions: covalent; NO donor, S-nitrosylates cysteine; HEN buffer pH 7.7, 30 min, dark.

Assay [2] deals with T2, BIK1 (MBP-BIK1) (Arabidopsis thaliana, UniProt O48814, K105E).
T2 construct: coding region of BIK1, HisMBP-tagged (pDEST-HisMBP; a 6xHis version from pDEST17 was also made), tag kept, E. coli BL21(DE3)
T2 sequence (O48814 1-395 K105E): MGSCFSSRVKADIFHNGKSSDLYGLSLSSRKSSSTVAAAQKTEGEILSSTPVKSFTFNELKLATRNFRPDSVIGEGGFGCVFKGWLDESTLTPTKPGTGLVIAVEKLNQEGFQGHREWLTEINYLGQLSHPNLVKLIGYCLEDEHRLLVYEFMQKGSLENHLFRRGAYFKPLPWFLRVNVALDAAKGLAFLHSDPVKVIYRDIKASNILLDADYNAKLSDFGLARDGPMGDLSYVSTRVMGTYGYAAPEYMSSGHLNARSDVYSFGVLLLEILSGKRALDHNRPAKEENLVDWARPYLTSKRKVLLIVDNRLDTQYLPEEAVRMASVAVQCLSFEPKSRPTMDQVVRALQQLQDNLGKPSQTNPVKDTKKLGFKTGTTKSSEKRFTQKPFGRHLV
Kind of assay: biotin switch. It counts as binding. The following applies: covalent; NO donor (donor not named for this figure; GSNO in the same passage); kinase-dead mutant, GSNO gave no autophosphorylation.

Assay [3] concerns the target T1, BIK1 (MBP-BIK1). Description: biotin switch (anti-biotin Western blot); in vitro autophosphorylation assay. It counts as biochemical. The following applies: covalent; NO donor, S-nitrosylates cysteine, reversed by DTT; raises autophosphorylation; HEN buffer pH 7.7, 30 min, dark. On the technique in general: A western blot detects proteins with antibodies after separation by electrophoresis.

The target in assay [4] is T3, MBP-BIK1 (recombinant botrytis-induced kinase 1 fused to maltose binding protein) (Arabidopsis (Col-0 cDNA), UniProt O48814 1-395).
T3 construct: botrytis-induced kinase 1 (BIK1), Arabidopsis; coding region amplified from Col-0 cDNA; The text calls the protein in the pull-down pBIK1 as well; a phosphorylation state of the recombinant protein is not defined; also called recombinant BIK1; pDEST-HisMBP-BIK1; source: E. coli BL21(DE3), purified (amylose magnetic beads)
T3 sequence (looked up): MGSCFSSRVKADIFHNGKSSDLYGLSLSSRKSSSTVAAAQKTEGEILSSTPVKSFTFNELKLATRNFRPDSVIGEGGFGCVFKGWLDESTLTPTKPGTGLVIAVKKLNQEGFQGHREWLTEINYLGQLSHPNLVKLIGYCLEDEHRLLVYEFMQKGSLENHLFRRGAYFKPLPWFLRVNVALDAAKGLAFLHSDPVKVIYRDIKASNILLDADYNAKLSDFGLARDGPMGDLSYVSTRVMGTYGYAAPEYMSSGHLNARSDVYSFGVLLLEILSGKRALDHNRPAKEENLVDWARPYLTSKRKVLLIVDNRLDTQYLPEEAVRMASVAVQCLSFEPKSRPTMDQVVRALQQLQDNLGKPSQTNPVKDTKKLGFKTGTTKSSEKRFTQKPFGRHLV
Kind of assay: pull-down; GST-RB-N on Glutathione Sepharose 4B incubated with MBP or MBP-BIK1 (untreated or pretreated with 10 uM GSNO or 100 uM DTT); 30 mM Hepes, 100 mM NaCl, 0.2% Triton X-100, pH 7.5; 4°C, 4 hours, dark; anti-MBP immunoblot. The following applies: both partners purified.

In assay [5] the target is T4, GSNO-pretreated MBP-BIK1 (S-nitrosylated BIK1, BIK1-SNO) (Arabidopsis (Col-0 cDNA), UniProt O48814 1-395, S-nitrosylation by GSNO pre-treatment; the paper assigns S-nitrosylation to Cys80).
T4 construct: botrytis-induced kinase 1 (BIK1), Arabidopsis; coding region amplified from Col-0 cDNA; same construct as m1; Same protein as m1 after treatment with the NO donor; which cysteines carried SNO in this sample was not determined in the pull-down itself
T4 sequence (looked up): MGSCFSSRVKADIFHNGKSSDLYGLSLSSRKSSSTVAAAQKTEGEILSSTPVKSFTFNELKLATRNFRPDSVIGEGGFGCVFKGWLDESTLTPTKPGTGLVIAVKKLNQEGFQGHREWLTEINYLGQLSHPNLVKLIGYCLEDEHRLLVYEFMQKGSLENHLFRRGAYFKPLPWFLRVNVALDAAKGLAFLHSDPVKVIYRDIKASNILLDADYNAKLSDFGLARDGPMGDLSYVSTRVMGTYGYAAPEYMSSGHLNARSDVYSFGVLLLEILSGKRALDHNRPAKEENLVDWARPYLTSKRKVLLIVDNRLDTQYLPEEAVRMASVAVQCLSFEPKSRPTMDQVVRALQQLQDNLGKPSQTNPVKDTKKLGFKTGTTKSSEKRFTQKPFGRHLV
Described as above. As to conditions: both partners purified.

For `N[C@@H](CSN=O)C(=O)O` [Cys-NO], the biotin switch result in assay [1] is given as “The natural NO donor, Cys-NO, also S-nitrosylated BIK1 in vitro”.

Regarding `N[C@@H](CCC(=O)N[C@@H](CSN=O)C(=O)NCC(=O)O)C(=O)O` [GSNO], the biotin switch entry in assay [2] is recorded as “NO induced S-nitrosylation of BIK1^K105E (fig. S6F)”. Moreover, the “biotin switch (anti-biotin Western blot); in vitro autophosphorylation assay” value in assay [3] is “BIK1 was S-nitrosylated in a concentration-dependent fashion by GSNO”.

B1: GST-RBOHD-N (GST-tagged N terminus of respiratory burst oxidase homolog D) (domain or fragment, Arabidopsis, UniProt Q9FIJ0 1-376, looked up)
chain: MKMRRGNSSNDHELGILRGANSDTNSDTESIASDRGAFSGPLGRPKRASKKNARFADDLPKRSNSVAGGRGDDDEYVEITLDIRDDSVAVHSVQQAAGGGGHLEDPELALLTKKTLESSLNNTTSLSFFRSTSSRIKNASRELRRVFSRRPSPAVRRFDRTSSAAIHALKGLKFIATKTAAWPAVDQRFDKLSADSNGLLLSAKFWECLGMNKESKDFADQLFRALARRNNVSGDAITKEQLRIFWEQISDESFDAKLQVFFDMVDKDEDGRVTEEEVAEIISLSASANKLSNIQKQAKEYAALIMEELDPDNAGFIMIENLEMLLLQAPNQSVRMGDSRILSQMLSQKLRPAKESNPLVRWSEKIKYFILDNWQR
notes: respiratory burst oxidase homolog D (RBOHD), Arabidopsis; 1128 bp make 376 codons; also called GST-RB-N; N-RBOHD; source: E. coli BL21(DE3), purified (Glutathione Sepharose 4B)
B1: the binding result in assay [4] and in assay [5] was “binds” throughout.
